Like-named read-outs stand apart in the source and are kept apart here.

From patent US20250032430A1, “USES OF RHODOQUINONE FOR THE TREATMENT OF DISEASE” (Whitehead Institute for Biomedical Research, priority 2021, published 2025) come the findings set out here.

One assay deals with 143B cells. The assay is described as follows: Cell proliferation. Particulars: antimycin, media containing high pyruvate and aspartate; versus wild-type cells. The format is cell-based, human. As to the method:
Proliferation: 25,000 cells were seeded in 6-well dishes and counted on day 1 and day 5 on a Beckman Coulter Counter. Doubling times were calculated using the following equation: […]

Assay [1] concerns liver, kidney, heart, and skeletal muscle. Briefly: Ex vivo O2 consumption of mouse tissues. As to the method: Oxygen Consumption Rate (Seahorse): Respiration was measured on intact 143B cells and on mitochondria purified from tissue on the Seahorse XFe-96 Analyzer (Seahorse Bioscience). Cells were incubated in a non-CO2 37° C. incubator in serum-free Seahorse XF RPMI Media (Seahorse Bioscience, Catalog #103336) supplemented with 5 mM glucose, 2 mM glutamine, and 1 mM pyruvate. Oxygen consumption rate (OCR) was measured over a period of 30 minutes. Oxygen consumption rate was also measured on mitochondria purified from mouse tissues. Mitochondria were incubated in MAS buffer (70 mM sucrose, 220 mM mannitol, 10 mM KH2PO4, 5 mM MgCl2, 2 mM HEPES pH 7.2, 1 mM EGTA, 2% BSA) supplemented with 2 mM ADP, 5 mM glutamate, 5 mM malate, 5 mM pyruvate, and 2.5 mM succinate. Oxygen consumption rate (OCR) was measured over a period of 30 minutes.

Assay [2] relates to DHODH. The assay is described as follows: Ex vivo DHODH activity in mouse tissues (13C4-aspartate into 13C4-orotate). The conditions noted are these: 2 μM antimycin. As to the method: Because net-reversal of the SDH complex supports DHODH activity in cultured cells when O2 reduction is blocked (FIG. 3), mouse tissues were tested. DHODH activity was measured in tissues that are capable (the liver and kidney) or incapable (the heart and gastrocnemius muscle) of net-reversing the SDH complex when O2 reduction is limited. […] Next, DHODH activity was assessed via ^13C4-aspartate incorporation into ^13C4-orotate, because labelling of the ^13C3-UTP pool was undetectable in most tissues.
Ex vivo stable isotope tracing on tissues: Tissues were excised from mice and washed in 1×PBS. Tissues were then cut into small pieces and placed in the appropriate stable isotope tracing media. Stable isotope tracing media contained either ^13C5^15N2-glutamine (Sigma) or 13C4-aspartate (Sigma) dissolved in DMEM, 5% FBS, 1% P/S. For ex vivo tracing experiments performed on the brain, the same media was used without FBS. Tissues were incubated for the designated time at 37° C. in a normal or hypoxia tissue culture incubator. […]
Isolation of metabolites from tissues: Tissues were flash frozen and powderized with a mortar and pestle in a liquid nitrogen bath. […] The top layer was transferred to a new tube, dried down in a speedvac, and subsequently stored at −80° C. until they were analyzed by LC-MS. […] Protein in each sample was quantified using the Pierce BCA Protein Assay Kit (Life Technologies). […]

A further assay relates to MT-DNA copy number. The assay is described as follows: MT-DNA quantification. The format is cell-based, human. The conditions noted are these: SDHA and SDHB knockout cells. As to the method:
MT-DNA Quantification: Cells were pelleted, washed 1× in PBS, and then lysed in buffer (25 mM NaOH, 0.2 mM EDTA) for 15 minutes at 95° C. Lysis was neutralized with buffer (40 mM Tris-HCl) and centrifuged at 16,000×g for 10 minutes at 4° C. Supernatant containing MT-DNA was quantified on a CFX96 Real-Time System Thermal Cycler (Bio Rad). Primers amplifying the MT-DNA marker D-Loop (Forward Primer-[…] (SEQ ID NO: 5) Reverse Primer—[…]) (SEQ ID NO: 6) and the nuclear DNA marker B-Globin (Forward Primer-[…] (SEQ ID NO: 7) Reverse Primer—[…]) (SEQ ID NO: 8) were used and the relative MT-DNA to nuclear DNA was quantified in each sample [4].

The next assay deals with complex I. Briefly: NAD+/NADH ratio in cells. Format: cell-based, human. Particulars: SDHB-null cells treated with antimycin versus wild-type cells treated with antimycin. As to the method: Next, fumarate reduction was tested to determine if it sustains complex I activity in cells incapable of using O2 as a terminal electron acceptor. Both the NAD+/NADH ratio, which is an indicator of complex I-mediated NADH reoxidation, and the mitochondrial membrane potential (ΔΨ^Mito) to which complex I contributes via proton pumping. […] Thus, fumarate reduction supports partial complex I activity, specifically NADH reoxidation and ΔΨ^Mito, in cells incapable of reducing O2 in the ETC.

Assay [3] deals with DHODH (Homo sapiens, UniProt Q02127). Particulars: for de novo UTP biosynthesis (13C3-UTP generation, DHODH activity): wild-type 143B cells, 13C4-aspartate tracing 8 hours, 500 nM antimycin, 2 μM brequinar.
Sequence of DHODH (Homo sapiens, UniProt Q02127) (Q02127 whole entry): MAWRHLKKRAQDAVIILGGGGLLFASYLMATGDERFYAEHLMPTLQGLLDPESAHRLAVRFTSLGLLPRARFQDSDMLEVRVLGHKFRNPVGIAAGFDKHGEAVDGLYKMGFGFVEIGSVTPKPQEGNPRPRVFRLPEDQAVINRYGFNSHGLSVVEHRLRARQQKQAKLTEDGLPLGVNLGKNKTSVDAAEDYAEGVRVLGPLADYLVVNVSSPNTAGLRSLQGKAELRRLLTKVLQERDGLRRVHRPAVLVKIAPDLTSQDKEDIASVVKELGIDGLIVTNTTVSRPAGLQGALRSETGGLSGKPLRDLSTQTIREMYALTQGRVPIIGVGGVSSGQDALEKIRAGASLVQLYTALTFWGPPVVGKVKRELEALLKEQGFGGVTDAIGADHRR
Protocol: Stable isotope tracing in cells: Cells were seeded 24 hours prior to the experiment in 6-well dishes at 70% density. For stable isotope tracing of glutamine, glutamine-free DMEM (ThermoFisher) was supplemented with 2 mM ^13C5^15N2-glutamine (Sigma), 1 mM pyruvate, 5% FBS, 1% P/S, 0.1 mg/mL uridine. For stable isotope tracing of aspartate, DMEM containing 5% FBS, and 1% penicillin and streptomycin, and 0.1 mg/mL uridine (Sigma) was supplemented with the designated amount of 13C4-aspartate (Sigma) and the pH adjusted to 7.4. Uridine was left out of the media for stable isotope tracing experiments measuring nucleotide biosynthesis. Unless otherwise stated, for all experiments, cells were treated for 8 hours and metabolites were isolated as described below. Relevant compounds were added at the start of the incubation periods.
Isolation of metabolites from adherent cells: To isolate metabolites, media was removed, cells were washed 2 times with ice cold 1×PBS, and wells were covered in LC-MS grade 80:20 Methanol:Water (ThermoFisher). Plates were scraped on dry ice and lysates were collected into eppendorf tubes. Lysates were vortexed for 10 minutes at 4° C. and centrifuged at 16,000×g for 10 minutes at 4° C. Supernatants were immediately dried down in a Refrigerated CentriVap Benchtop Vacuum Concentrator connected to a CentriVap-105 Cold Trap (Labconco). Dried pellets were stored at −80° C. until they were run on LC-MS.
Liquid Chromatography and Mass Spectrometry (polar): A QExactive bench top orbitrap mass spectrometer equipped with an Ion Max source and a HESI II probe coupled to a Dionex UltiMate 3000 HPLC system (Thermo Fisher Scientific) was used to perform all LC-MS experiments. The instrument underwent mass calibration using the standard calibration mixture every 7 days. 2 μL of re-suspended polar metabolite samples were injected onto a SeQuant ZIC-pHILIC 5 μm 150×2.1 mm analytical column equipped with a 2.1×20 mm guard column (MilliporeSigma). The column oven was held at 25° C. and the autosampler tray was held at 4° C. Buffer A was comprised of 20 mM ammonium carbonate, 0.1% ammonium hydroxide. Buffer B was comprised of 100% acetonitrile. The chromatographic gradient was run at a flow rate of 0.150 mL/min as follows: 0-20 min: linear gradient from 80-20% B; 20-20.5 min: linear gradient from 20-80% B; 20.5-28 min: hold at 80% B. The mass spectrometer was operated in full-scan, polarity-switching mode, with the spray voltage set to 3.0 kV, the heated capillary at 275° C., and the HESI probe at 350° C. The sheath gas flow was 40 units, the auxiliary gas flow was 15 units, and the sweep gas flow was 1 unit. MS data was collected in a range of m/z=70-1000. The resolution set at 70,000, the AGC target at 1×106, and the maximum injection time at 20 msec. An additional scan (m/z=220-700) was included in negative mode only to enhance detection of nucleotides.
The next assay has as its system kidney. The assay is described as follows: Kidney tissue cultured ex vivo (quinone levels, fumarate reduction). Particulars: kidney cultured ex vivo for 96 hours, reduced rhodoquinone levels; succinate oxidation not affected. Set-up: species or system mouse. As to the method:
Ex vivo stable isotope tracing on tissues: Tissues were excised from mice and washed in 1×PBS. Tissues were then cut into small pieces and placed in the appropriate stable isotope tracing media. Stable isotope tracing media contained either ^13C5^15N2-glutamine (Sigma) or 13C4-aspartate (Sigma) dissolved in DMEM, 5% FBS, 1% P/S. For ex vivo tracing experiments performed on the brain, the same media was used without FBS. Tissues were incubated for the designated time at 37° C. in a normal or hypoxia tissue culture incubator. Tissues were removed from the media, washed with PBS, and flash frozen in liquid nitrogen. Samples could be stored at −80° C. until metabolites were isolated.
Rhodoquinone-9 is a previously unknown mammalian metabolite. Without wishing to be bound by any particular theory, it is believed that since the level of rhodoquinone-9 decreases overtime when the kidney is cultured ex vivo, that cultured media is missing a component of the rhodoquinone biosynthetic pathway, and that this component may be coming from the gut microbiome.

Another assay deals with complex 1 and DHODH. Briefly: Proliferation of WT and RquA cells in media without pyruvate or uridine. The format is cell-based. The conditions noted are these: media − pyruvate, − uridine. From the text:
Proliferation of WT and RquA cells in media that forces cells to use maximal complex 1 activity (− pyruvate) and maximal DHODH activity (− uridine). Complex 1 and DHODH are enzymes in the ETC that require an electron carrier (classically UQ) to catalyze their function. […] Rotenone was used as a control and inhibits complex 1 activity. Brequinar was used as a control and inhibits DHODH activity.

In the case of antimycin, the “proliferation of SDHB-null cells” value with 143B cells is listed as “less than wild-type cells treated with antimycin”. Also, in assay [1], the O2 consumption entry is “ablated”. Besides, the “levels of 13C4-orotate (DHODH activity)” value is reported as “reduced” with DHODH [2] (ex vivo heart and gastrocnemius muscle); “remained unchanged” in the assay on DHODH [2] (ex vivo liver and kidney). Also, the MT-DNA copy number entry in the assay with MT-DNA copy number is “did not alter”. Moreover, the “NAD+/NADH ratio” value in the assay on complex I is “lower”. Moreover, the “DHODH activity (13C3-UTP production)” value at DHODH [3] is reported as “ablated”. Also, the “DHODH activity (13C4-aspartate into 13C3-UTP)” value at DHODH [3] (combined inhibition of complex III with antimycin and complex I with piericidin) is recorded as “no effect”. The results for the “de novo UTP biosynthesis (13C3-UTP generation, DHODH activity)” value on DHODH [3] and on DHODH [3] (listed as Antimycin) were “did not decrease” and “no effect”, respectively.
On to rhodoquinone, for which the “fumarate reduction in the kidney” value with kidney is listed as “required for ubiquitous fumarate reduction”. Besides, the “support of complex 1 and DHODH activities (proliferation)” value in the assay on complex 1 and DHODH is “can carry electrons in the ETC and support complex 1 and DHODH activities”.
